# Laboratory results from patent publication US5110976A, “Insecticidal composition comprising more than one active ingredient” (priority 1985, dated 1992).
# Legend:
# [1] = test system: Musca domestica; assay: Filter paper disc contact test (Table 11); format: in vivo, house fly (Musca domestica); conditions: Musca domestica, 24 h
# Description: In Table 1 the activity of various stereoisomers of cypermethrin on the house fly (Musca domestica) is shown.
# (§1) The active ingredient is dissolved in a 1:2 mixture of oil and acetone; filter paper discs (Whatman No. 1, diameter 9 cm) are impregnated with the solutions of the corresponding stereoisomers and enantiomer-pairs, respectively. The acetone is allowed to evaporate, whereupon the insects are exposed to filter papers discs placed in Petri-dishes. Three parallels are used on each dose and 15 insects are placed into each Petri-dish. The percental mortality is determined after 24 hours. The corrected percent mortality is calculated by means of the Abbot Formula.
# [2] = test system: Tribolium confusum; assay: Contact test on Tribolium confusum (Table 12); format: in vivo
# Description: as §1
# It appears from Table 12 that the increased activity shown in Example 41 is due to the synergistic effect of the trans-isomers to Tribolium confusum.
# [3] = test system: Tribolium confusum; assay: Contact test, mixtures of Ia and Ib of various ratio (Table 13); format: in vivo, flour beetle (Tribolium confusum); conditions: Tribolium confusum, 24 h
# Description: as §1
# In Table 13 the insecticidal effect of mixtures of enantiomer-pairs Ia and Ib of various ratio is shown on flour beetle (Tribolium confusum). The test method is that disclosed in Example 43.
# [4] = test system: Colorado potato beetle; assay: Topical test on Colorado potato beetle (Table 14); format: in vivo, Colorado potato beetle (Leptinotersa decemlineata), imago; conditions: Leptinotarsa decemlineata, topical
# Description: In Table 14 the activity on Colorado potato beetle is shown.
# The test materials are dissolved in 2-ethoxyethanol (Cellosolve). One 0.3 μl drop of the solution is applied to the abdominal sterna of the imago. The treatment is carried out by using 2 parallels and 10 insects for each dose. […]
# [5] = test system: Acanthoscelides obtectus; assay: Comparative contact test (Table 15); format: in vivo, bean weevil (Acanthoscelides obtectus), imago
# Description: as §1
# (§2) The comparative test of Ia, Ib and a 40:60 mixture of Ia:Ib is carried out on bean weevil (Acanthoscelides obtectus), flour-beetle, (Tribolium confusum), house fly (Musca domestica) and sheep maggot fly (Lucillia sericata). The test method described is Example 41.
# [6] = test system: tribolium confusum; assay: Comparative contact test (Table 15); format: in vivo, flour-beetle (Tribolium confusum), imago; conditions: 24 h
# Description: as §1, §2
# [7] = test system: Musca domestica; assay: Comparative contact test (Table 15); format: in vivo, house fly (Musca domestica), imago; conditions: 24 h
# Description: as §1, §2
# [8] = test system: Lucillia sericata; assay: Comparative contact test (Table 15); format: in vivo, sheep maggot fly (Lucillia sericata), imago; parameters: key: % mortality after 24 h, Abbott-corrected; conditions: 1440 min
# Description: as §1, §2
# [9] = test system: T. confusum; assay: Activity as function of time, toxic symptoms (Table 16); format: in vivo, flour beetle (T. confusum), imagos
# Description: as §1
# Activity of cypermethrin stereoisomer-pairs as function of time on flour beetle (T. Confusum).
# Flour beetle (T. confusum) imagos are exposed in Petri-dishes according to the method described in Example 43. For each dose 3 parallels are used and 15 animals are applied for each parallel test. In each point of time the insects lying on their backs are counted and the percental results are expressed in Table 16.
# [10] = test system: Hyphantria cunea; assay: Topical test on fall webworm (Table 18); format: in vivo, fall wetworm (Hyphantria cunea), L7-L8 larvae; conditions: Hyphantria cunea, topical, 24 h
# Description: The active ingredients are dissolved in 2-ethoxy-ethanol and the solutions are applied in the form of 0.2 μl droplets onto the back of fall wetworm (Hyphantria cunea) of L7 -L8 larvae stage. The treated worms are placed on strawberry leaves in Petri-dishes. The test is carried out by using […], 2 parallels and 10 insects for each dose. The killed worms are counted after 24 hours and the percental mortality rate is calculated.
# [11] = test system: Tetranychus urticae; assay: Potter Tower spray on mite-infested leaves (Table 19); format: in vivo, mites (Tetranychus urticae); conditions: Tetranychus urticae, 24 h, mortality after 24 hours; read-out: approx. LD50
# Description: Leaves already infested with mites (Tetranychus urticae) were sprayed under Potter Tower. Mortality after 24 hours on the treated leaves was compared with the control.
smiles,measurement,setting,value
CC1(C)[C@H](C=C(Cl)Cl)[C@H]1C(=O)O[C@H](C#N)c1cccc(Oc2ccccc2)c1 (relative stereo) [Ib],mortality at 40 µg/disc,[1]; 0.04 mg/disc,32%
same,mortality at 110 µg/disc,[1]; 0.11 mg/disc,62%
same,mortality at 330 µg/disc,[1]; 0.33 mg/disc,95%
same,mortality at 1000 µg/disc,[1]; 1.00 mg/disc,100%
same,mortality at 3000 µg/disc,[1]; 3.00 mg/disc,100%
same,mortality at 110 µg/disc,"[2]; Tribolium confusum, 24 h, 0.11 mg/disc",64%
same,mortality at 330 µg/disc,"[2]; Tribolium confusum, 24 h, 0.33 mg/disc",89%
same,mortality at 1000 µg/disc,"[2]; Tribolium confusum, 24 h, 1.00 mg/disc",100%
same,mortality at 3000 µg/disc,"[2]; Tribolium confusum, 24 h, 3.00 mg/disc",100%
same,synergism between the members of the enantiomer-pair,[2]; in vivo,synergism observed
same,mortality at 60 µg/disc,[3]; 0.06 mg/disc,46%
same,mortality at 250 µg/disc,[3]; 0.25 mg/disc,100%
same,mortality at 20 µg/disc,[3]; 0.02 mg/disc,8%
same,mortality at 1000 µg/disc,[3]; 1.00 mg/disc,100%
same,mortality at 0.05 µg/beetle,"[4]; read-out: 24 hours' mortality %, 0.05 μg/beetle",0%
same,mortality at 0.1 µg/beetle,"[4]; read-out: 24 hours' mortality %, 0.10 μg/beetle",25%
same,mortality at 0.2 µg/beetle,"[4]; read-out: 24 hours' mortality %, 0.20 μg/beetle",75%
same,mortality at 0.4 µg/beetle,"[4]; read-out: 24 hours' mortality %, 0.40 μg/beetle",85%
same,mortality at 20 µg/disc,"[5]; Acanthoscelides obtectus, 24 h, 0.02 mg/disc",32%
same,mortality at 70 µg/disc,"[5]; Acanthoscelides obtectus, 24 h, 0.07 mg/disc",55%
same,mortality at 220 µg/disc,"[5]; Acanthoscelides obtectus, 24 h, 0.22 mg/disc",87%
same,mortality at 670 µg/disc,"[5]; Acanthoscelides obtectus, 24 h, 0.67 mg/disc",100%
same,mortality at 2000 µg/disc,"[5]; Acanthoscelides obtectus, 24 h, 2.0 mg/disc",100%
same,mortality at 6000 µg/disc,"[5]; Acanthoscelides obtectus, 24 h, 6.0 mg/disc",100%
same,comparative activity,"[5]; Example 47, further insect species, Ib versus Ia",more active than Ia
same,mortality at 20 µg/disc,[6]; 0.02 mg/disc,14%
same,mortality at 70 µg/disc,[6]; 0.07 mg/disc,73%
same,mortality at 220 µg/disc,[6]; 0.22 mg/disc,100%
same,mortality at 670 µg/disc,[6]; 0.67 mg/disc,100%
same,mortality at 2000 µg/disc,[6]; 2.0 mg/disc,100%
same,mortality at 6000 µg/disc,[6]; 6.0 mg/disc,100%
same,mortality at 20 µg/disc,[7]; 0.02 mg/disc,0%
same,mortality at 70 µg/disc,[7]; 0.07 mg/disc,18%
same,mortality at 220 µg/disc,[7]; 0.22 mg/disc,67%
same,mortality at 670 µg/disc,[7]; 0.67 mg/disc,100%
same,mortality at 2000 µg/disc,[7]; 2.0 mg/disc,100%
same,mortality at 6000 µg/disc,[7]; 6.0 mg/disc,100%
same,mortality,[8]; 0.02 mg/disc,22
same,mortality,[8]; 0.07 mg/disc,55
same,mortality,[8]; 0.22 mg/disc,70
same,mortality,[8]; 0.67 mg/disc,75
same,mortality,[8]; 2.0 mg/disc,100
same,mortality,[8]; 6.0 mg/disc,100
same,% of insects showing toxic symptoms,[9]; 30 minutes,0%
same,% of insects showing toxic symptoms,"[9]; 30 minutes, 0.33 mg/disc",0%
same,% of insects showing toxic symptoms,"[9]; 30 minutes, 1.00 mg/disc",47%
same,% of insects showing toxic symptoms,"[9]; 30 minutes, 3.00 mg/disc",61%
same,% of insects showing toxic symptoms,[9]; 60 minutes,0%
same,% of insects showing toxic symptoms,"[9]; 60 minutes, 0.33 mg/disc",21%
same,% of insects showing toxic symptoms,"[9]; 60 minutes, 1.00 mg/disc",82%
same,% of insects showing toxic symptoms,"[9]; 60 minutes, 3.00 mg/disc",100%
same,% of insects showing toxic symptoms,[9]; 120 minutes,28%
same,% of insects showing toxic symptoms,"[9]; 120 minutes, 0.33 mg/disc",100%
same,% of insects showing toxic symptoms,"[9]; 120 minutes, 1.00 mg/disc",100%
same,% of insects showing toxic symptoms,"[9]; 120 minutes, 3.00 mg/disc",100%
same,% of insects showing toxic symptoms,[9]; 180 minutes,56%
same,% of insects showing toxic symptoms,"[9]; 180 minutes, 0.33 mg/disc",100%
same,% of insects showing toxic symptoms,"[9]; 180 minutes, 1.00 mg/disc",100%
same,% of insects showing toxic symptoms,"[9]; 180 minutes, 3.00 mg/disc",100%
same,mortality at 0.023 µg/disc,[10]; 0.023 (μg/disc),10%
same,mortality at 0.047 µg/disc,[10]; 0.047 (μg/disc),15%
same,mortality at 0.094 µg/disc,[10]; 0.094 (μg/disc),30%
same,mortality at 0.188 µg/disc,[10]; 0.188 (μg/disc),70%
same,mortality at 0.375 µg/disc,[10]; 0.375 (μg/disc),80%
same,LC50,[11],~0.34 mg/L
